Reference: US20230218681A1, “BREVUNDIMONAS SP FOR USE IN DISEASE PREVENTION AND TREATMENT” (Zivo Bioscience, Inc., priority 2021, published 2023)

Tests used:
[1] = system: Eimeria acervulina, Eimeria maxima, and Eimeria tenella; test: Second study: dried bacterial biomass feed ingredients in cocci-challenged floor-pen broilers on built-up litter, Days 1-28; type: in vivo, broiler chicks
Description: A second study was undertaken to determine the response and efficacy of a dried bacterial biomass feed ingredient incorporated at a specific amount into a commercial-type corn-soybean diet and fed to floor-pen raised broilers. The second study was undertaken over a 28-day period, from Day 1 to Day 28.
The animals were raised under a disease challenge environment (cocci-challenge+built-up litter). For the study and as set forth in FIG. 15, six groups were established, including a first group that received no feed additive ingredient, a second group treated with the anti-coccidia drug Coban® (Elanco), a third group fed a Variovorax-based biomass, a fourth group fed a Brevundimonas-based biomass, a fifth group fed a Sphingomonas-based biomass, and a sixth group fed a 50:50 mixture of a Variovorax and Brevundimonas-based biomass. The feed included corn and soybean meal rations with normal nutritional formulations. No coccidiostat (except for treatment with Coban® provided to the second group) or ABF (antibiotic free products) were administered during the study. No coccidiosis vaccine was administered at the hatchery or during the course of the study.
(§1) A total of 1,800 mixed sex broiler chicks were obtained within twelve hours of hatching from fecal contaminated flocks at a commercial hatchery on Day 0 (hatch and placement day). A number of mixed-sex broiler chicks (50:50 sex ratio) were randomly assigned on Day 0 by individual weights to one of several test group pens, each with replicates. Only antibiotic-free birds were sourced, and no coccidiosis vaccine was administered at the hatchery or at any time during the study. Chicks were evaluated upon receipt for signs of disease or other complications that could affect study outcome. Weak birds were humanely sacrificed. Birds were not replaced during the study.
(§2) Following examination, chicks were weighed and allocated to pens for the various treatment groups using a randomized block design. Weight distribution across the treatment groups was assessed prior to feeding by comparing the individual test groups' standard deviations of the mean against that of the control group. Weight distribution across the groups was considered acceptable for this study when differences between control and test groups were within one standard deviation.
(§3) All birds received nutritionally adequate diets as pellets (crumbled pellets for Days 1-14). Birds were fed their respective treatment diets ad libitum from day of hatch to 28 days of age. (The typical average market age is 42 days.) Birds were raised on built-up litter to further mimic stress conditions typically experienced in poultry production.
(§4) All diets were offered ad libitum without restrictions to full-fed consumption, except for an 8-hour fasting period prior to cocci-challenge on Day 7 when all birds assigned to the challenge test groups received oocyst-inoculated feed containing a mixture of Eimeria acervulina, Eimeria maxima, and Eimeria tenella. Dietary requirements for protein, lysine, methionine, methionine+cystine, arginine, threonine, tryptophan, total phosphorus, available phosphorus, total calcium, dietary sodium, and dietary choline were met by adjusting the concentrations of corn and soybean meal ingredients, as well as other minor ingredients commonly used in poultry production.
(§5) Pens were monitored for environmental conditions, including temperature, lighting, water, feed, litter condition, and unanticipated house conditions/events. Pens were checked daily for mortality. Examinations were performed on all broilers found dead or moribund. Mortalities were recorded (date and weight) and examined (both internal and external body mass).
Cocci-Challenge—On Day 7, all birds assigned to the challenge test groups received oocyst-inoculated feed containing a mixture of Eimeria acervulina, Eimeria maxima, and Eimeria tenella. Adequate feed was precisely weighed and provided to birds to consume at the rate of 100% fill-capacity on average. […]

[2] = system: Eimeria acervulina, Eimeria maxima, and Eimeria tenella; test: First study: floor-pen broilers challenged with Eimeria on Day 7, test material in feed, Days 0-28; type: in vivo, broiler chicks
Description: as §1, with “Chicks” for “A total of 1,800 mixed sex broiler chicks”, “Three-hundred” for “A number of”, “each” for “one”
as §2, §3
as §4, with “to” for “to the”
as §5
Cocci-Challenge—On Day 7, all birds assigned to challenged test groups received oocyst-inoculated feed containing a mixture of Eimeria acervulina, Eimeria maxima, and Eimeria tenella. Adequate feed was precisely weighed and provided to birds to consume at the rate of 100% fill-capacity on average. Prior to the challenge, all birds were starved for eight hours. Inoculated feed was provided to the birds. Following a specific time, all remaining inoculated feed was removed and weighed to assure equal consumption per pen and per bird. The quantity of feed (both placed and withdrawn) was recorded on each pen's feed record.
Differences between groups were evaluated at P<0.05, employing Treatment x Replicate RCB (Randomized Complete Block) design. Particularly and as noted, “Significance (P<0.05)” refers to means for groups not sharing common letter designations in the figures which indicates significant difference (P<0.05) between said groups, as determined by Duncan's New Multiple Range Test (MRT 1955).

[3] = cocci challenge Day 7, Days 1-28
[4] = mortality-corrected, cocci challenge Day 7, Days 1-28

SMILES: CC[C@@]1([C@@H]2O[C@@H]([C@H]3O[C@@](O)(CO)[C@H](C)C[C@@H]3C)C[C@@H]2C)CC[C@H]([C@]2(C)CC[C@]3(C[C@H](O)[C@@H](C)[C@@H]([C@@H](C)[C@@H](OC)[C@H](C)C(=O)O)O3)O2)O1 [Coban, Monensin, USP]
- Coccidia Incidence Score Small Intestine Day 28 ([1]; Day 28): 0.325
- Lesion Score Duodenum Day 28 ([1]; Day 28): 0.317
- Avg Pen Body Weight (g) Day 28 ([1]; cocci challenge Day 7, Day 28): 1443.182 g
- Feed Intake (g/bird/day) Day 28 ([1]; cocci challenge Day 7, Day 28): 75.493 g/bird/day
- % Mortality Days 1-28 [1, 3]: 3.750%
- Feed Conversion Ratio Corrected Days 1-28 [1, 4]: 1.403
- Lesion Score Ceca Day 28 ([2]; Day 28): 0.583
- Lesion Score Ileum Day 28 ([2]; Day 28): 0.433
- Lesion Score Duodenum Day 28 ([2]; Johnson and Reid method, Day 28): 0.525
- Avg Pen Body Weight (g) Day 28 ([2]; cocci challenge Day 7, Day 28): 1430.88 g
- Feed Intake (g/bird/day) Day 28 ([2]; cocci challenge Day 7, Day 28): 89.499 g/bird/day
- % Mortality Days 1-28 [2, 3]: 1.852%
- Feed Conversion Ratio Corrected Days 1-28 [2, 4]: 1.527
